pEC50: −log10 of the molar value.
Assays:
[1] = tested on: HBV; experiment: In vitro antiviral assay: anti-HBV replication in HepAD38 cells (extracellular HBV DNA by QPCR); format: cell-based, hepatitis B virus (genotype D, serotype ayw); conditions: Hepatitis B virus, HePAD38, 168 h, 7 days incubation, extracellular HBV DNA by QPCR, read-out: Anti-HBV EC50
Experimental: The anti-HBV activity of the Capsid Assembly Modulators (CAMs) was evaluated in a cell based assay utilizing the human hepatoma cell line HepAD38 (Ladner, S K., et al., 1998). HepAD38 cells were derived from the parental line, HepG2, that were stably transfected with a construct containing an HBV genome (genotype D, serotype ayw) under the control of a tetracycline repressible CMV promoter. Upon removal of tetracycline, viral pre-genomic RNA (pgRNA) and mRNAs are expressed and infectious viral particles are assembled and secreted into the culture medium providing a reliable, robust system to measure multiple steps of the HBV life cycle. Disruption of capsid formation results in reduced levels of DNA-containing virus particles that are released into the culture supernatant. To quantify the effect of CAMs on HBV replication, we developed a sensitive QPCR-based assay that measures extracellular HBV DNA levels upon treatment of HepAD38 cells with various concentrations of test compounds.
HepAD38 cells were maintained in DMEM/F12 medium containing 10% FBS, 400 μg/mL G418 and 0.3 μg/mL tetracycline (tet+ media) to maintain repression of HBV replication. To evaluate each compound, HepAD38 cells were seeded into 24-well collagen coated culture plates (Corning BioCoat) at a density of 200,000 cells per well in 1 mL of medium without tetracycline (tet-media) and allowed to adhere overnight at 37° C., 5% CO2 in a humidified incubator. The following day, media was refreshed and a dose range of each compound was prepared by performing 1 log10 serial dilutions in 100% DMSO at 200× the desired assay concentration. Dilutions were then added to the cells resulting in a final dose range of 1 μM to 10 pM and the plates were returned to the incubator. Following 7 days of incubation, culture supernatants were harvested and HBV DNA levels were evaluated by QPCR and compared to the vehicle treated control wells (i.e. DMSO alone).
To quantify HBV DNA levels, cell culture supernatants were diluted 1:10 in sterile, nuclease-free water (Gibco). The diluted supernatants were subsequently added to a PCR master mix containing 1× Roche Light Cycler Master Mix, 0.5 μM forward primer, 0.5 μM reverse primer (Fwd: 5′-[…] (SEQ ID NO 1); Rev: 5′-[…] (SEQ ID NO 2)), 0.2 μM Roche Universal Probe Library Probe 25. The volume was brought to 20 μL with nuclease-free water and amplification of the HBV target sequence was performed using a Roche LightCycler 480 QPCR instrument. PCR extended out to 45 cycles with each cycle consisting of a denaturation step at 95° C. for 10 sec., followed by an annealing step at 60° C. for 10 sec. and a brief extension step at 72° C. for 1 sec.
Extracellular HBV DNA levels, expressed in copies/mL, were determined by comparison to a standard curve (10^2-10^9 copies/mL) using the Roche LightCycler analysis software. These values were subsequently converted to percent inhibition of HBV replication by dividing the HBV DNA levels in the experimental samples with those obtained from the vehicle control (˜1-2×10^5 copies/mL). Potency, expressed as an EC50 (the effective concentration required to inhibit 50% of HBV replication), was calculated from the dose-response curve using a 4-parameter non-linear regression analysis (GraphPad Prism). The nucleoside analog inhibitor entecavir was used as a positive control to validate each assay run. The EC50 value of entecavir in the HepAD38 assay was 0.5 nM, as previously reported in the literature.

[2] = In vitro cytotoxicity assay (MTT cell viability) in HepG2 cells; format: cell-based, human; conditions: human
Experimental: To evaluate antiviral selectivity, the cytotoxic activity of each compound was determined using a standard cell viability assay performed on the parental HepG2 cell line. Cell viability was determined by measuring the conversion of 3-(4,5-dimethylthiazol-2-yl)-2,5-diphenyltetrazolium bromide (MTT) to the insoluble formazan salt crystal that occurs in live cells. Briefly, HepG2 cells were seeded in 96-well plates at a density of 20,000 cells per well in […] (complete growth medium) and allowed to adhere overnight in a 37° C., […] humidified incubator. The next day, test agents were prepared by performing 8 half-log10 serial dilutions in 100% DMSO at 200× the final desired concentration in the assay. Compounds were tested over a range of concentrations from 30 μM to 1.0 nM in the assay. HepG2 cells were incubated in the presence of various concentrations of CAMs for 7 days in a 37° C., […] humidified incubator. At the completion of the 7-day incubation period, MTT reagent was added to each well and the mixture was incubated for an additional 3-4 hours. At the completion of the incubation period, all wells were aspirated to remove the culture medium. The formazan crystals were solubilized from the cell monolayers with 100% DMSO. Plates were briefly mixed on an orbital shaker and absorbance was measured at 492 nm using a Perkin-Elmer EnVision multi-label plate reader. All absorbance values were converted to a percentage of the signal obtained from the vehicle treated controls. Absorbance values at 492 nm are directly proportional to the number of viable cells present in the sample. A CC50 value (cytotoxic concentration that results in loss of 50% cell viability) was calculated from the dose-response curve by 4-parameter, non-linear regression analysis using the GraphPad Prism software. The positive control compound, staurosporine, reduced the viability of HepG2 cells in a dose-dependent manner (CC50=100 nM).

Row | Compound | pEC50 [1] | CC50 at 7 days [2] [µM]
1 | Cc1cc(NC(=O)c2c(C)c(C(=O)C(=O)N[C@@H]3CCCN(C(=O)Nc4ccc(F)c(F)c4)C3)n(C)c2C)ccc1F [Example 35, (R)-N-(3,4-difluorophenyl)-3-(2-(4-((4-fluoro-3-methylphenyl)carbamoyl)-1,3,5-trimethyl-1H-pyrrol-2-yl)-2-oxoacetamido)piperidine-1-carboxamide] | 6.00 to 6.30 | 5 to 30
2 | Cc1cc(NC(=O)c2c(C)c(C(=O)C(=O)NC3(C)CCN(C(=O)N4CCOCC4)CC3)n(C)c2C)ccc1F [Example 36, N-(4-fluoro-3-methylphenyl)-1,2,4-trimethyl-5-(2-((4-methyl-1-(morpholine-4-carbonyl)piperidin-4-yl)amino)-2-oxoacetyl)-1H-pyrrole-3-carboxamide] | > 7.30 | > 30
3 | Cc1c(C(=O)Nc2ccc(F)c(F)c2)c2n(c1C(=O)C(=O)N[C@@H]1COC[C@H]1N1CCOCC1)CCCC2 [Example 37, N-(3,4-difluorophenyl)-2-methyl-3-(2-(((3S,4S)-4-morpholinotetrahydrofuran-3-yl)amino)-2-oxoacetyl)-5,6,7,8-tetrahydroindolizine-1-carboxamide] | 6.30 to 7.30 | > 30
4 | CCC1(NC(=O)C(=O)c2c(C)c(C(=O)Nc3ccc(F)c(C)c3)c(C)n2C)CCN(C(=O)c2cnn(C)c2)CC1 [Example 38, 5-(2-((4-ethyl-1-(1-methyl-1H-pyrazole-4-carbonyl)piperidin-4-yl)amino)-2-oxoacetyl)-N-(4-fluoro-3-methylphenyl)-1,2,4-trimethyl-1H-pyrrole-3-carboxamide] | > 7.30 | > 30
5 | CCC1(NC(=O)C(=O)c2c(C)c(C(=O)Nc3ccc(F)c(C)c3)c(C)n2C)CCN(C(=O)c2ccnn2C)CC1 [Example 39, 5-(2-((4-ethyl-1-(1-methyl-1H-pyrazole-5-carbonyl)piperidin-4-yl)amino)-2-oxoacetyl)-N-(4-fluoro-3-methylphenyl)-1,2,4-trimethyl-1H-pyrrole-3-carboxamide] | > 7.30 | > 30
6 | CCC1(NC(=O)C(=O)c2c(C)c(C(=O)Nc3ccc(F)c(C)c3)c(C)n2C)CCN(C(=O)c2cn(C)nc2C(F)F)CC1 [Example 40, 5-(2-((1-(3-(difluoromethyl)-1-methyl-1H-pyrazole-4-carbonyl)-4-ethylpiperidin-4-yl)amino)-2-oxoacetyl)-N-(4-fluoro-3-methylphenyl)-1,2,4-trimethyl-1H-pyrrole-3-carboxamide] | > 7.30 | > 30
7 | CCC1(NC(=O)C(=O)c2c(C)c(C(=O)Nc3ccc(F)c(C)c3)c(C)n2C)CCN(C(C)=O)CC1 [Example 41, 5-(2-((1-acetyl-4-ethylpiperidin-4-yl)amino)-2-oxoacetyl)-N-(4-fluoro-3-methylphenyl)-1,2,4-trimethyl-1H-pyrrole-3-carboxamide] | > 7.30 | > 30
8 | CCC1(NC(=O)C(=O)c2c(C)c(C(=O)Nc3ccc(F)c(C)c3)c(C)n2C)CCN(S(C)(=O)=O)CC1 [Example 42, 5-(2-((4-ethyl-1-(methylsulfonyl)piperidin-4-yl)amino)-2-oxoacetyl)-N-(4-fluoro-3-methylphenyl)-1,2,4-trimethyl-1H-pyrrole-3-carboxamide] | > 7.30 | > 30
9 | CCC1(NC(=O)C(=O)c2c(C)c(C(=O)Nc3ccc(F)c(C)c3)c(C)n2C)CCN(c2nccs2)CC1 [Example 43, 5-(2-((4-ethyl-1-(thiazol-2-yl)piperidin-4-yl)amino)-2-oxoacetyl)-N-(4-fluoro-3-methylphenyl)-1,2,4-trimethyl-1H-pyrrole-3-carboxamide] | > 7.30 | 5 to 30
10 | CCC1(NC(=O)C(=O)c2c(C)c(C(=O)Nc3ccc(F)c(C)c3)c(C)n2C)CCN(c2cccnn2)CC1 [Example 44, 5-(2-((4-ethyl-1-(pyridazin-3-yl)piperidin-4-yl)amino)-2-oxoacetyl)-N-(4-fluoro-3-methylphenyl)-1,2,4-trimethyl-1H-pyrrole-3-carboxamide] | > 7.30 | > 30
11 | Cc1c(C(=O)Nc2ccc(B(O)O)cc2)c(C)n(C)c1C(=O)C(=O)NC(C)(C)C [Example 45, (4-(5-(2-(tert-butylamino)-2-oxoacetyl)-1,2,4-trimethyl-1H-pyrrole-3-carboxamido)phenyl)boronic acid] | 6.00 to 6.30 | > 30
12 | Cc1c(C(=O)Nc2cccc(B(O)O)c2)c(C)n(C)c1C(=O)C(=O)NC(C)(C)C [Example 46, (3-(5-(2-(tert-butylamino)-2-oxoacetyl)-1,2,4-trimethyl-1H-pyrrole-3-carboxamido)phenyl)boronic acid] | 6.00 to 6.30 | > 30
13 | Cc1csc(C2(NC(=O)c3c(C)c(C(=O)C(=O)NC(C)(C)C)n(C)c3C)CCCC2)n1 [Example 47, 5-(2-(tert-butylamino)-2-oxoacetyl)-1,2,4-trimethyl-N-(1-(4-methylthiazol-2-yl)cyclopentyl)-1H-pyrrole-3-carboxamide] | < 6.00 | > 30
14 | Cc1c(C(=O)NC2COCCOC2)c(C)n(C)c1C(=O)C(=O)NC(C)(C)C [Example 48, 5-(2-(tert-butylamino)-2-oxoacetyl)-N-(1,4-dioxepan-6-yl)-1,2,4-trimethyl-1H-pyrrole-3-carboxamide] | < 6.00 | > 30
15 | Cc1cc(NC(=O)c2c(C)c(C(=O)C(=O)NC3(C)CCCN(C(=O)Nc4ccc(F)c(F)c4)C3)n(C)c2C)ccc1F (stereo not shown) [Example 49, N-(3,4-difluorophenyl)-3-(2-(4-((4-fluoro-3-methylphenyl)carbamoyl)-1,3,5-trimethyl-1H-pyrrol-2-yl)-2-oxoacetamido)-3-methylpiperidine-1-carboxamide] | 6.30 to 7.30 | > 30
16 | CCC1(NC(=O)C(=O)c2c(C)c(C(=O)Nc3ccc(F)c(C)c3)c(C)n2C)CCN(c2cnccn2)CC1 [Example 50, 5-(2-((4-ethyl-1-(pyrazin-2-yl)piperidin-4-yl)amino)-2-oxoacetyl)-N-(4-fluoro-3-methylphenyl)-1,2,4-trimethyl-1H-pyrrole-3-carboxamide] | > 7.30 | > 30
17 | Cc1c(C(=O)Nc2cc(Cl)nc(Cl)c2)c(C)n(C)c1C(=O)C(=O)N[C@H](C)C(F)(F)F [Example 51, (R)-N-(2,6-dichloropyridin-4-yl)-1,2,4-trimethyl-5-(2-oxo-2-((1,1,1-trifluoropropan-2-yl)amino)acetyl)-1H-pyrrole-3-carboxamide] | > 7.30 | > 30
